Reference: patent US7820700B2, “2-phenylpyridine derivative” (Astellas Pharma Inc., priority 2004, dated 2010)
Where a name gives a salt, the structure may show the parent alone.

Tests used:
[1] = biological target: T1, xanthine oxidase (derived from butter milk) (Bos taurus, UniProt P80457); assay: Xanthine oxidase-inhibitory activity (pterin oxidation, fluorescence); assay type: biochemical; conditions: pterin 5 μM, room temperature; read-out: IC50 (xanthine oxidase inhibition)
T1 construct: xanthine oxidase (derived from butter milk, manufactured by Sigma); purchased Sigma; host or cells: butter milk (natural source)
T1 sequence (P80457 whole entry): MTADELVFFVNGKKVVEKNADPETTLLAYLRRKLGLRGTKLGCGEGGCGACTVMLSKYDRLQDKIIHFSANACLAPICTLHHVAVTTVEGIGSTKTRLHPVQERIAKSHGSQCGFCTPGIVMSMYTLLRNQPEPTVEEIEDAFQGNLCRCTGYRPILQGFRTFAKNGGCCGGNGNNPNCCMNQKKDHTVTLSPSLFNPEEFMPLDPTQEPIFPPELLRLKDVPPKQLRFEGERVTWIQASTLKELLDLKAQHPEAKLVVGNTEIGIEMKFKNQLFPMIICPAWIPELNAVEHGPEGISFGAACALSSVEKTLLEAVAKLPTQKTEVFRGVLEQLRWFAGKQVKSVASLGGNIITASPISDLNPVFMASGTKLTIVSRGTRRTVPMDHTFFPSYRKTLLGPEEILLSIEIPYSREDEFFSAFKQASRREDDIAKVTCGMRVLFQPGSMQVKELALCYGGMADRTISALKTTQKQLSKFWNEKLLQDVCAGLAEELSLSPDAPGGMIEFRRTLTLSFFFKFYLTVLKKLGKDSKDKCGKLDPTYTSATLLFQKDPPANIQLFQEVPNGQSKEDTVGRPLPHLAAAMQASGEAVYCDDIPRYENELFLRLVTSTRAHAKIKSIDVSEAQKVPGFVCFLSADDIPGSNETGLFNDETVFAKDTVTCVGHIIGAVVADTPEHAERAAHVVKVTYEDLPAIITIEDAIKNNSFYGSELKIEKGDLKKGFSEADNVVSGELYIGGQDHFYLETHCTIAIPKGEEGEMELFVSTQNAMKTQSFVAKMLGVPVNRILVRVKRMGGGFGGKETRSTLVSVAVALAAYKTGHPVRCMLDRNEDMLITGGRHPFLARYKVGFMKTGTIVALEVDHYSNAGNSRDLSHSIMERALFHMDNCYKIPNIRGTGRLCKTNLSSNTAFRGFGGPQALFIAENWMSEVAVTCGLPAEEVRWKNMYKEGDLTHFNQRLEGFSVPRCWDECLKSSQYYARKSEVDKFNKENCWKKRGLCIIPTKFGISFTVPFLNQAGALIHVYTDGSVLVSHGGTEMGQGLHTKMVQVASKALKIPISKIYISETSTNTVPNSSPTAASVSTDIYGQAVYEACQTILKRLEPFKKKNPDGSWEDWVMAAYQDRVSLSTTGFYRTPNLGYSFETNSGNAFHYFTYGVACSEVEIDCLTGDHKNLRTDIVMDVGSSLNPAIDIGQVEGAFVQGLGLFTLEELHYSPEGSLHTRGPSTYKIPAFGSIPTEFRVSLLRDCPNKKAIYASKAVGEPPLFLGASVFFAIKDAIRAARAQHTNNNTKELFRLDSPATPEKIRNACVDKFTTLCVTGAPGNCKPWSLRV
Description: A test compound was dissolved in DMSO (manufactured by Nakarai) so as to be a concentration of 10 mM and then used after the concentration was adjusted to an aimed one at use.
The evaluation of xanthine oxidase-inhibitory activity of the compound of the invention was carried out using a method described in a document (Free Radic. Biol. Med. 6, 607-615, 1992) with partial modification. Namely, xanthine oxidase (derived from butter milk, manufactured by Sigma) was adjusted to 0.03 units/ml using a 50 mM phosphate buffer and was added to a 96-well plate in an amount of 50 μl/well. Each test compound diluted so as to be a final concentration was added thereto in an amount of 2 μl/well, followed by treatment at room temperature for 20 minutes. Pterin (manufactured by Sigma) was added thereto so as to be a final concentration of 5 μM, followed by reaction at room temperature for 10 minutes. Measurement was performed using a microplate reader saphire (manufactured by Tecan) under conditions of excitation at 345 nm and emission at 390 nm (pterin was oxidized by xanthine oxidase into isoxanthopterin, which emitted a light under the conditions).
The concentration of the test compound at which 50% inhibition was observed (IC50 value) was calculated, the emissions of isoxanthopterin under conditions of the presence or absence of xanthine oxidase being 0% inhibition and 100% inhibition, respectively.

[2] = system: VEGF mRNA in the vitreous body; assay: Diabetic retinopathy model (streptozotocin), VEGF mRNA in the vitreous body; assay type: in vivo, male Wistar rat; conditions: 30 mg/kg oral once a day for 7 days, STZ rats, vs control group
Description: The efficiency of the compound of the invention on diabetic retinopathy was tested by the method described in European Journal of Pharmacology 458 (2003) 283-289 (except that the animal used in the experiment was male Wistar rat, 10 weeks old).
Streptozotocin (STZ) was administered to the animals to be tested and increase in blood sugar level was confirmed after 24 hours. Thereafter, the animals were divided into a 0.5% methyl cellulose-administered group (control group) and 30 mg/kg test compound-administered group and oral administration was performed once a day for 7 days.

[3] = system: pyrimidine synthetic pathway (BUN level); assay: Pyrimidine synthetic pathway-inhibitory action (influence on BUN level); assay type: in vivo; conditions: oral administration of 30 mg/kg
Excerpt: Allopurinol which is an existing hyperuricemia therapeutic drug is known to cause renal dysfunction as an undesirable action. As mentioned previously, since allopurinol has a nucleic acid-like structure, as one cause thereof, it is presumed that it inhibits pyrimidine synthetic pathway. […] Thus, according to the method described in the document, the influence of the compounds of the invention on a BUN level was confirmed.

[4] = biological target: T2, AKR1C3 (17βHSD5) (Homo sapiens, UniProt P42330); assay: AKR1C3 inhibitory action (DELFIA Testosterone Reagents); assay type: biochemical; conditions: read-out: IC50 (AKR1C3 inhibition)
T2 sequence (P42330 1-323): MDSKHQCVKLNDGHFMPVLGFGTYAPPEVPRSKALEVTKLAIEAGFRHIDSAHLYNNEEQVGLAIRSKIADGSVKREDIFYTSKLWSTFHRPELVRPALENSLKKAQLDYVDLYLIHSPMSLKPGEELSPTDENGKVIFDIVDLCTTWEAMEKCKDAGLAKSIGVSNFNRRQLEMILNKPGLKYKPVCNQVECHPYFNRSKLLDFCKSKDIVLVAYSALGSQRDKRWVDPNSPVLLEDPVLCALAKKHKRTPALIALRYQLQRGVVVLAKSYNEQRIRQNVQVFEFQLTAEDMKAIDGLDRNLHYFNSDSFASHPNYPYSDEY
Excerpt: AKR1C3 known as a molecule belonging to aldo-keto reductase is known as a multifunctional enzyme (Jikken Igaku 23, 90-97, 2005). There is expected the application of a compound inhibiting AKR1C3 to various morbid conditions including inflammatory diseases (Mol. Pharmacol 67, 60-68, 2005) (Current Pharmaceutical Design 10, 3505-3524, 2004) (J. Biol. Chem 273, 1855-1888, 1998).

[5] = system: TNBS-induced enteritis; assay: Trinitrobenzenesulfonic acid-induced enteritis-inhibitory action; assay type: in vivo, male Wistar rats; conditions: 3 mg/kg oral once a day, dissection on 21st day, Wistar rat
Description: The effectiveness of the compound of the invention on an enteritis model can be also evaluated by a model using trinitrobenzenesulfonic acid (TNBS) as an inducing agent instead of acetic acid (Cell. Mol. Biol, 38, 189-199, 1992). Thus, referring to the method described in the report, the enteritis-suppressing action of the compound of the invention was evaluated.
Namely, TNBS or physiological saline as a normal group was administered into the rectum of male Wistar rats of 200 to 250 g. Thereafter, a test compound or 0.5% methyl cellulose (control group) was orally administered once a day and dissection was performed on each administered group on 21st day. A part of the large intestine 2 to 7 cm from the anus side was cut out and incised. After feces were removed by means of tweezers, the part was washed and a score of morbid conditions was evaluated and tissue weight was measured. The score of morbid conditions and a tissue weight increase-suppressing ratio were calculated as in the evaluation method of the above acetic acid-induced enteritis-suppressing action.

Row | IC50 [1] | SMILES | other results
1 | 10 nM | N#Cc1cc(-c2cc(C(=O)O)ccn2)ccc1OCc1ccccn1 [Example 21] | –
2 | 2.5 nM | CC(C)CSc1ccc(-c2cnccc2C(=O)O)cc1C#N [Example 7, sodium 5-[3-cyano-4-(isobutylthio)phenyl]isonicotinate] | –
3 | 5 nM | CSCCCOc1ccc(-c2cc(C(=O)O)ccn2)cc1C#N [Example 3, 2-{3-cyano-4-[3-(methylthio)propoxy]phenyl}isonicotinic acid] | –
4 | 2.8 nM | N#Cc1cc(-c2cc(C(=O)O)ccn2)ccc1N1CC=CCC1 [Example 49] | –
5 | 2.6 nM | N#Cc1cc(-c2cc(C(=O)O)ccn2)ccc1OCc1ccccc1 [Example 9] | –
6 | 2.2 nM | COC1(C2CCCCC2)CCN(c2ccc(-c3cc(C(=O)O)ccn3)cc2C#N)CC1 [Example 67] | –
7 | 3.1 nM | CCCCN(C)c1ccc(-c2cc(C(=O)O)ccn2)cc1C#N [Example 57] | –
8 | 4 nM | CC(C)COc1ccc(-c2cc(C(=O)O)c(Cl)cn2)cc1C#N [Example 77] | –
9 | 5.8 nM | CC(C)COc1c(Br)cc(-c2cc(C(=O)O)ccn2)cc1C#N [Example 79] | –
10 | 7.3 nM | N#Cc1cc(-c2cc(C(=O)O)ccn2)ccc1OCCOc1cc(F)cc2c1OCCC2 [Example 33] | –
11 | 3.1 nM | CC(C)=CCOc1ccc(-c2cc(C(=O)O)ccn2)cc1C#N [Example 72] | –
12 | 4.2 nM | N#Cc1cc(-c2cc(C(=O)O)ccn2)ccc1OCCOc1ccccc1 [Example 30] | –
13 | 1.1 nM | N#Cc1cc(-c2cc(C(=O)O)ccn2)ccc1NC1CCCCCC1 [Example 63] | –
14 | 4.3 nM | CC1(C)CC(Oc2ccc(-c3cc(C(=O)O)ccn3)cc2C#N)CC(C)(C)C1 [Example 44] | –
15 | 10 nM | N#Cc1cc(-c2cc(C(=O)O)ccn2)ccc1OCC(F)(F)F [Example 13] | –
16 | 4.1 nM | N#Cc1cc(-c2cc(C(=O)O)ccn2)ccc1OC1CCOCC1 [Example 14] | –
17 | 1.3 nM | CC1CCN(c2ccc(-c3cc(C(=O)O)ccn3)cc2C#N)CC1 [Example 45] | Pyrimidine synthetic pathway inhibitory action (BUN level) [3]: no inhibitory action
18 | 3.2 nM | CC(C)COc1ccc(-c2nccc(C(=O)O)c2F)cc1C#N [Example 75] | –

Row | SMILES | IC50 [1] | other results
19 | N#Cc1cc(-c2cc(C(=O)O)ccn2)ccc1N1CCCCCC1 [Example 4, 2-(4-azepan-1-yl-3-cyanophenyl)isonicotinic acid monohydrochloride] | 1.2 nM | Suppression of increase of VEGF mRNA in the vitreous body [2]: significant suppressing action; Pyrimidine synthetic pathway inhibitory action (BUN level) [3]: no inhibitory action; IC50 [4]: ≤ 1000 nM; Suppression of intestinal tissue weight increase [5]: ≥ 70%
20 | CC(C)COc1ccc(-c2cc(C(=O)O)ccn2)cc1C#N [Example 1, 2-(3-cyano-4-isobutoxyphenyl)isonicotinic acid] | 3.6 nM | –
